Results: patent US20180185490A1 (R&D PHARMA, priority 2017, published 2018)

Experiments:
[1] = Tolerance in subungual and periungual application; type: in vivo
Text: (§1) Its tolerance in subungual and periungual application is good and perfectly compatible with the desired therapeutic effect.

DNA = conditions: cited from earlier work
rat = conditions: by mouth; cited from earlier work
[2] = Irritation of eyes and mucous membranes; type: in vivo; conditions: pure or concentrated GBL
Text: as §1

SMILES: O=C1CCCO1 [GBL, gamma-butyrolactone]
- tolerance in subungual and periungual application [1]: good
- alteration of DNA (DNA): no alteration of DNA
- LD50 (rat): 17.2 mL/kg
- irritation of eyes and mucous membranes [2]: irritating to the eyes and the mucous membranes
